Laboratory results published in ChEMBL document CHEMBL4706768, “Discovery of Potent, Selective Triazolothiadiazole-Containing c-Met Inhibitors” (ACS Med Chem Lett, 2021).

Experiments:
[1] = target: Receptor-type tyrosine-protein kinase FLT3 (Homo sapiens, UniProt P36888); assay: Inhibition of FLT3 (unknown origin)
[2] = Inhibition of GSK3 (unknown origin); set-up: species or system Homo sapiens
[3] = target: Vascular endothelial growth factor receptor 2 (Homo sapiens, UniProt P35968); assay: Inhibition of KDR (unknown origin)
[4] = target: Tyrosine-protein kinase receptor TYRO3 (Homo sapiens, UniProt Q06418); assay: Inhibition of SKY (unknown origin)
[5] = target: Tyrosine-protein kinase ABL1 (Homo sapiens) (UniProt P00519); assay: Inhibition of recombinant N-terminal His6-tagged human ABL (27 to end residues) expressed in baculovirus infected Sf21 insect cells at 2 uM using Abltide as substrate relative to control
[6] = target: Mitogen-activated protein kinase kinase kinase 5 (Homo sapiens) (UniProt Q99683); assay: Inhibition of recombinant N-terminal GST-tagged/C-terminal His6-tagged human ASK1 (649 to 946 residues) expressed in Escherichia coli at 2 uM using MBP as substrate relative to control
[7] = target: Tyrosine-protein kinase receptor UFO (Homo sapiens) (UniProt P30530); assay: Inhibition of recombinant N-terminal His6-tagged human AXL (473 to end residues) expressed in Sf21 insect cells at 2 uM using Axl-tide as substrate relative to control
[8] = target: Tyrosine-protein kinase BTK (Homo sapiens) (UniProt Q06187); assay: Inhibition of recombinant N-terminal His6-tagged human full-length BTK expressed in Sf21 insect cells at 2 uM using Src peptide as substrate relative to control
[9] = target: Cyclin-dependent kinase 5/CDK5 activator 1 (Homo sapiens) (UniProt Q00535+Q15078); assay: Inhibition of recombinant N-terminal His6-tagged human full-length CDK5/N-terminal GST-tagged full-length p35 expressed in baculovirus infected Sf21 insect cells at 2 uM using Histone H1 as substrate relative to control
[10] = target: Serine/threonine-protein kinase Chk1 (Homo sapiens) (UniProt O14757); assay: Inhibition of recombinant human N-terminal GST-tagged full-length CHK1 expressed in Sf21 insect cells at 2 uM using CHKtide as substrate relative to control
[11] = target: Epidermal growth factor receptor (Homo sapiens) (UniProt P00533); assay: Inhibition of recombinant human N-terminal GST-tagged EGFR (696 to end residues) expressed in baculovirus infected Sf21 insect cells at 2 uM using angiotensin II peptide as substrate relative to control
[12] = target: Ephrin type-B receptor 4 (Homo sapiens) (UniProt P54760); assay: Inhibition of recombinant human N-terminal GST-tagged EphB4 (561 to end residues) expressed in baculovirus infected Sf21 insect cells at 2 uM using poly (Glu,Tyr) (4:1) as substrate relative to control
[13] = target: Fibroblast growth factor receptor 3 (Homo sapiens) (UniProt P22607); assay: Inhibition of recombinant human N-terminal His6-tagged FGFR3 (447 to 761 residues) expressed in Sf21 insect cells at 2 uM using poly (Glu,Tyr) (4:1) as substrate relative to control
[14] = target: Insulin-like growth factor 1 receptor (Homo sapiens) (UniProt P08069); assay: Inhibition of recombinant human N-terminal His6-tagged IGF1R (959 to end residues) expressed in baculovirus infected Sf21 insect cells at 2 uM relative to control
[15] = target: Tyrosine-protein kinase Lck (Homo sapiens) (UniProt P06239); assay: Inhibition of recombinant human full-length N-terminal His6-tagged LCK expressed in baculovirus infected Sf21 insect cells at 2 uM relative to control
[16] = target: Serine/threonine-protein kinase mTOR (Homo sapiens) (UniProt P42345); assay: Inhibition of recombinant human N-terminal FLAG-tagged mTOR (1362 to end residues) at 2 uM relative to control
[17] = target: Dual specificity mitogen-activated protein kinase kinase 6 (Homo sapiens) (UniProt P52564); assay: Inhibition of recombinant human N-terminal MBP-tagged MKK6 (4 to end residues) expressed in Escherichia coli at 2 uM using p38alpha/SAPK2a.as substrate relative to control
[18] = target: Dual specificity mitogen-activated protein kinase kinase 7 (Homo sapiens) (UniProt O14733); assay: Inhibition of recombinant human N-terminal GST-tagged MKK7beta1 (2 to end residues) expressed in Escherichia coli at 2 uM using JNK1alpha1/SAPK1c as substrate relative to control
[19] = target: Ribosomal protein S6 kinase alpha-5 (Homo sapiens) (UniProt O75582); assay: Inhibition of recombinant human N-terminal His6-tagged MSK1 (2 to end residues) expressed in baculovirus infected Sf21 insect cells at 2 uM using Crosstide as substrate relative to control
[20] = target: Serine/threonine-protein kinase PAK 2 (Homo sapiens) (UniProt Q13177); assay: Inhibition of recombinant human N-terminal/C-terminal His6-tagged full-length PAK2 (3 to end residues) expressed in Escherichia coli at 2 uM using long S6 Kinase peptide as substrate relative to control
[21] = target: Platelet-derived growth factor receptor alpha (Homo sapiens) (UniProt P16234); assay: Inhibition of recombinant human N-terminal His6-tagged PDGFRalpha (550 to end residues) expressed in baculovirus infected Sf21 insect cells at 2 uM using poly (Glu4-Tyr) (4:1) as substrate relative to control
[22] = target: Protein kinase C beta type (Homo sapiens) (UniProt P05771); assay: Inhibition of recombinant human N-terminal His6-tagged PKCbeta2 (2 to end residues) expressed in Sf21 insect cells at 2 uM using Histone H1 as substrate relative to control
[23] = target: Protein kinase C theta type (Homo sapiens) (UniProt Q04759); assay: Inhibition of recombinant human full-length C-terminal His6-tagged PKCtheta expressed in Sf21 insect cells at 2 uM using Histone H1 as substrate relative to control
[24] = system: RAF proto-oncogene serine/threonine-protein kinase (Homo sapiens), P04049 [Y340D,Y341D]; assay: Inhibition of recombinant human N-terminal GST-tagged c-RAF Y340D/Y341D mutant (306 to 648 residues) expressed in Sf9 insect cells at 2 uM using MEK1(K97R) as substrate relative to control
[25] = target: Proto-oncogene tyrosine-protein kinase receptor Ret (Homo sapiens) (UniProt P07949); assay: Inhibition of recombinant human N-terminal GST-tagged RET (658 to end residues) expressed in baculovirus infected Sf21 insect cells at 2 uM using IFG1Rtide as substrate relative to control
[26] = target: Proto-oncogene tyrosine-protein kinase ROS (Homo sapiens) (UniProt P08922); assay: Inhibition of recombinant human N-terminal His6-tagged ROS (1883 to end residues) expressed in baculovirus infected Sf21 insect cells at 2 uM using KKKSPGEYVNIEFG as substrate relative to control
[27] = target: High affinity nerve growth factor receptor (Homo sapiens) (UniProt P04629); assay: Inhibition of recombinant human N-terminal His6-tagged TRKA (440 to end residues) expressed in baculovirus infected Sf21 insect cells at 2 uM using KKKSPGEYVNIEFG as substrate relative to control
[28] = Unbound intrinsic clearance in mouse hepatocytes assessed per million cells; format: ADME, cell-based, Hepatocyte

Chain of Receptor-type tyrosine-protein kinase FLT3 (P36888 whole entry): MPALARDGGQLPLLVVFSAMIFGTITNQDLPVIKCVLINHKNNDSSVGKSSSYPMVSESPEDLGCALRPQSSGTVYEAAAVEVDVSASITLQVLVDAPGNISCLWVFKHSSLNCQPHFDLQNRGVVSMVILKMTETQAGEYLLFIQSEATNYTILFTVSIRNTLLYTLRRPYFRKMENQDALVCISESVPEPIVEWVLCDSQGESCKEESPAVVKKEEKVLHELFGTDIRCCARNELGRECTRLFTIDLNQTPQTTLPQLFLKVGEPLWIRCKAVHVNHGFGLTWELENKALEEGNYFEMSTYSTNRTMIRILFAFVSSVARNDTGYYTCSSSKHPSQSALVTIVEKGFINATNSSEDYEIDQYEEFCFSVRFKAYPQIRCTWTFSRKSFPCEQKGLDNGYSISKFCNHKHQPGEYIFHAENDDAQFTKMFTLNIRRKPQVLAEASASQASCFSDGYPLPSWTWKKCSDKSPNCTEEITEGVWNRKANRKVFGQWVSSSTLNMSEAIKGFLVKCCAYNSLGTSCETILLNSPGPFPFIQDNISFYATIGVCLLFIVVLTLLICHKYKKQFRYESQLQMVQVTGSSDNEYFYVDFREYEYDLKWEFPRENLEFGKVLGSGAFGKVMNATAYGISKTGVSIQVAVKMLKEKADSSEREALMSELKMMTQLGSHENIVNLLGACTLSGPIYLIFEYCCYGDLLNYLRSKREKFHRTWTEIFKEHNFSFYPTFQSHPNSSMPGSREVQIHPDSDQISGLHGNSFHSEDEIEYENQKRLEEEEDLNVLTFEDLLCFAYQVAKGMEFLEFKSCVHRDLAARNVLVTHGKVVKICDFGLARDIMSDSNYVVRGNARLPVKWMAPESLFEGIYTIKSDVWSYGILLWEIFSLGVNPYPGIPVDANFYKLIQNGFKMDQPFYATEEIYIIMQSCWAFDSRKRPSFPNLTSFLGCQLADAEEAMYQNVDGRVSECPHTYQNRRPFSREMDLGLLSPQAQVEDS
Chain of Protein kinase C theta type (Homo sapiens) (Q04759 whole entry, looked up, the tested form may be a part): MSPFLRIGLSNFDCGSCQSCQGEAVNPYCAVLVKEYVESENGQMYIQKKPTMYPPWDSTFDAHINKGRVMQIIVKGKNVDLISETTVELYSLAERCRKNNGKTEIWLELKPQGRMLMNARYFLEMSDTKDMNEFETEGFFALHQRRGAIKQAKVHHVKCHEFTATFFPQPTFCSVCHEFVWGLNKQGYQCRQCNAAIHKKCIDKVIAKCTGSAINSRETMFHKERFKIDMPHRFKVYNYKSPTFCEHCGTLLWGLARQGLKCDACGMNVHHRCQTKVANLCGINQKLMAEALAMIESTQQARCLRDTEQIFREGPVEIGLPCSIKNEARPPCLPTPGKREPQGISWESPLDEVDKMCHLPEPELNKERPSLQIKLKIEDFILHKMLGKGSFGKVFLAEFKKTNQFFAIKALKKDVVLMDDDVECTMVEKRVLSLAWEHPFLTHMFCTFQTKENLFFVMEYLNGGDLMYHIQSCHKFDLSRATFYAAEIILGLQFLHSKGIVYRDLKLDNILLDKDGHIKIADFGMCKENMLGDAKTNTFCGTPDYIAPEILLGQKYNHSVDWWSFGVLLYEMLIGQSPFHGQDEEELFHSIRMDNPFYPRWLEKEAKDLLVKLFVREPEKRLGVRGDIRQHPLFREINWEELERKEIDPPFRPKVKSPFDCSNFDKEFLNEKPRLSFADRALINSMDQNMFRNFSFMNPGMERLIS
Chain of Epidermal growth factor receptor (Homo sapiens) (P00533 whole entry): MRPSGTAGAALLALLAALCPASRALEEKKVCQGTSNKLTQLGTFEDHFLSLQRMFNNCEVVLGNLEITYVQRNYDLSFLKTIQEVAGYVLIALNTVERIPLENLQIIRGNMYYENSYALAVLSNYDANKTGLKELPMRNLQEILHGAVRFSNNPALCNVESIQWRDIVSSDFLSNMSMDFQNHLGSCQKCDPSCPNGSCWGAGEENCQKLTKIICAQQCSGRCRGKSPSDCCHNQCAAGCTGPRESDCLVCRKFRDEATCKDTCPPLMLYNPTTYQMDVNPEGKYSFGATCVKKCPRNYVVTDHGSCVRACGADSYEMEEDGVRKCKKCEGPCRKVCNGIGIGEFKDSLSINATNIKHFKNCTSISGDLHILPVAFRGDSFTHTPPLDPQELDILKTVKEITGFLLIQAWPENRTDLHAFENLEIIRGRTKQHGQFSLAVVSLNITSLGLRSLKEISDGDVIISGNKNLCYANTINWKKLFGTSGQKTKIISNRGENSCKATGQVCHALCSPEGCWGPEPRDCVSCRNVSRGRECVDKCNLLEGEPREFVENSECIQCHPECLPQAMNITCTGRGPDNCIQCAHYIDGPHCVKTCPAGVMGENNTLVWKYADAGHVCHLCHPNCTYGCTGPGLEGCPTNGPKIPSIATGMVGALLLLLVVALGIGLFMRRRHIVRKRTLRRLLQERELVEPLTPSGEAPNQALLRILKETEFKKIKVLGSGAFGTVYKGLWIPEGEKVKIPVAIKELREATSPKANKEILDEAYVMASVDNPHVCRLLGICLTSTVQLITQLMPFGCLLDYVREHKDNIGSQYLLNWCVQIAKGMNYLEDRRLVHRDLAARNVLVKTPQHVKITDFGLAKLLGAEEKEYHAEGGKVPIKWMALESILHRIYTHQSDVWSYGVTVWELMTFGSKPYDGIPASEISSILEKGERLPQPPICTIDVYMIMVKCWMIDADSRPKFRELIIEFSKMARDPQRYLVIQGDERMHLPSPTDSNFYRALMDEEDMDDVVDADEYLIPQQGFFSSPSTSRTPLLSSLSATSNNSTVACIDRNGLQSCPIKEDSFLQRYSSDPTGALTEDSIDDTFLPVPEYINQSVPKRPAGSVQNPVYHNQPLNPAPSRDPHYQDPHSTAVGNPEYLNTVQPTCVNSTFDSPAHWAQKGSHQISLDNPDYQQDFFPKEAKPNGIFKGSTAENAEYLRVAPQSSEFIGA
Chain of Proto-oncogene tyrosine-protein kinase receptor Ret (Homo sapiens) (P07949 whole entry): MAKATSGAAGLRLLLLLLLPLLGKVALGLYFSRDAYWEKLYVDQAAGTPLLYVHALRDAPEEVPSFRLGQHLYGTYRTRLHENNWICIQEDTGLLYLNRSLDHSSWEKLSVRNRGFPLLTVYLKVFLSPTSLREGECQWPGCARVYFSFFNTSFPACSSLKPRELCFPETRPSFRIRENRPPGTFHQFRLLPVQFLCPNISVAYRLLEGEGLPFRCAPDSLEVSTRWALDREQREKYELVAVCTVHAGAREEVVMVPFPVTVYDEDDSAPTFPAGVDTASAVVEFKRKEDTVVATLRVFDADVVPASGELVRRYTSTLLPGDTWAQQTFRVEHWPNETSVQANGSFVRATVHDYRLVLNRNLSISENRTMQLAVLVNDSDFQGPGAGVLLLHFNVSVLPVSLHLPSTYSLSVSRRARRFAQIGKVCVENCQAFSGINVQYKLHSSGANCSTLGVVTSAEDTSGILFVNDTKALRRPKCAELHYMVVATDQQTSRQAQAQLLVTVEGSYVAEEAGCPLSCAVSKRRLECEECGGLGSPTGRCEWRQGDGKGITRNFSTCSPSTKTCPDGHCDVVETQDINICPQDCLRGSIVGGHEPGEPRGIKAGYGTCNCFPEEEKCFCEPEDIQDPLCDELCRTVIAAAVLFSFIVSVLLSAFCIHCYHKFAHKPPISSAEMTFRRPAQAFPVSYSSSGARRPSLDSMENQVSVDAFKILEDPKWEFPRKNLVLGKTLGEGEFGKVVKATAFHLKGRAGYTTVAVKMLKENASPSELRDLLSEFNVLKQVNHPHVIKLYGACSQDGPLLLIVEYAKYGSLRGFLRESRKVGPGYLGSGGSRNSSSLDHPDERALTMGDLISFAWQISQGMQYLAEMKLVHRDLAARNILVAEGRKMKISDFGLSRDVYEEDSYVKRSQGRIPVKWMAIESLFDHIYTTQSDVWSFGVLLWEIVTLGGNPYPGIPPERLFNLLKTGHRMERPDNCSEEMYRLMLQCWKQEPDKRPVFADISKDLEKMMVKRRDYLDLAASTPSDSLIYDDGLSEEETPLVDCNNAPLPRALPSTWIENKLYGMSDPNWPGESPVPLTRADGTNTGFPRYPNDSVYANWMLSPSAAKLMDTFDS
Chain of Cyclin-dependent kinase 5/CDK5 activator 1 (Homo sapiens) (Q00535 whole entry): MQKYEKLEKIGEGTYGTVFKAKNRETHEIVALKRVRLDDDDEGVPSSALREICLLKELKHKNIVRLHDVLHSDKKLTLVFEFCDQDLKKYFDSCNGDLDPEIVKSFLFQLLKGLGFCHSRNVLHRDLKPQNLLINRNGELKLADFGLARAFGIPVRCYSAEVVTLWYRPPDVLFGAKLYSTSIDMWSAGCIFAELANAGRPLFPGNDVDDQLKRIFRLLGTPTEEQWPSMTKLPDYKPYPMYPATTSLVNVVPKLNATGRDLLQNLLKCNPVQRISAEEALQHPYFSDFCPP
Chain of Cyclin-dependent kinase 5/CDK5 activator 1 (Homo sapiens) (Q15078 99-307 partner limits assumed): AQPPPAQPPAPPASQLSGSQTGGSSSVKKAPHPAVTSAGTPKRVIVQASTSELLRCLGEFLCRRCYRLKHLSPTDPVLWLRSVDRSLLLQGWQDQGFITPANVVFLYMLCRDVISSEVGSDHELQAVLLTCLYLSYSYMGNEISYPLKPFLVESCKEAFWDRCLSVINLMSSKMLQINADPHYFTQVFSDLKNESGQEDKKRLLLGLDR
Chain of Dual specificity mitogen-activated protein kinase kinase 6 (Homo sapiens) (P52564 whole entry): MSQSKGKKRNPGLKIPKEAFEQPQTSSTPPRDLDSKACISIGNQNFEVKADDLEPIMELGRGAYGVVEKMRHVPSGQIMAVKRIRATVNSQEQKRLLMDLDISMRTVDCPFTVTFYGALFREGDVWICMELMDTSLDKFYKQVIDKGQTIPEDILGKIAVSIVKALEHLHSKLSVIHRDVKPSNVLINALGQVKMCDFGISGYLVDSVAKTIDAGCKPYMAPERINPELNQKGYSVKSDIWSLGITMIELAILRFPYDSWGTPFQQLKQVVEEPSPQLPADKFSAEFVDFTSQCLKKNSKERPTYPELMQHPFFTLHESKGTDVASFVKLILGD

C[C@@H](c1ccc2ncccc2c1)c1nnc2sc(-c3cnn(C)c3)nn12
Ki [1]: > 4 µM | Ki [2]: > 4 µM | Ki [3]: > 4 µM | Ki [4]: > 4 µM | inhibition [5]: < 50% | inhibition [6]: < 50% | inhibition [7]: < 50% | inhibition [8]: < 50% | inhibition [9]: < 50% | inhibition [10]: < 50% | inhibition [11]: < 50% | inhibition [12]: < 50% | inhibition [13]: < 50% | inhibition [14]: < 50% | inhibition [15]: < 50% | inhibition [16]: < 50% | inhibition [17]: < 50% | inhibition [18]: < 50% | inhibition [19]: < 50% | inhibition [20]: < 50% | inhibition [21]: < 50% | inhibition [22]: < 50% | inhibition [23]: < 50% | inhibition [24]: < 50% | inhibition [25]: < 50% | inhibition [26]: < 50% | inhibition [27]: < 50% | CL free [28]: 7.2 µL/min
